According to patent US10034915B2, “Small heat shock proteins and active fragments thereof as a therapy for inflammation and ischemia” (The Board of Trustees of the Leland Stanford Junior …, priority 2011, dated 2018):

B1: Hsp22 (protein, UniProt O14558 1-160, looked up)
Heat shock protein beta-6: MEIPVPVQPSWLRRASAPLPGLSAPGRLFDQRFGEGLLEAELAALCPTTLAPYYLRAPSVALPVAQVPTDPGHFSVLLDVKHFSPEEIAVKVVGEHVEVHARHEERPDEHGFVAREFHRRYRLPPGVDPAAVTSALSPEGVLSIQAAPASAQAPPPAAAK
notes: recombinant human small heat shock protein
B2: myotonic dystrophy protein kinase binding protein, MKBP (protein, UniProt Q16082 1-182, looked up)
Heat shock protein beta-2: MSGRSVPHAHPATAEYEFANPSRLGEQRFGEGLLPEEILTPTLYHGYYVRPRAAPAGEGSRAGASELRLSEGKFQAFLDVSHFTPDEVTVRTVDNLLEVSARHPQRLDRHGFVSREFCRTYVLPADVDPWRVRAALSHDGILNLEAPRGGRHLDTEVNEVYISLLPAPPDPEEEEEAAIVEP
notes: as for B1
B3: HSPB3: recombinant human small heat shock protein (protein, UniProt Q12988 1-150, looked up)
Heat shock protein beta-3: MAKIILRHLIEIPVRYQEEFEARGLEDCRLDHALYALPGPTIVDLRKTRAAQSPPVDSAAETPPREGKSHFQILLDVVQFLPEDIIIQTFEGWLLIKAQHGTRMDEHGFISRSFTRQYKLPDGVEIKDLSAVLCHDGILVVEVKDPVGTK
B4: HSPB9: recombinant human small heat shock protein (protein, UniProt Q9BQS6 1-159, looked up)
Heat shock protein beta-9: MQRVGNTFSNESRVASRCPSVGLAERNRVATMPVRLLRDSPAAQEDNDHARDGFQMKLDAHGFAPEELVVQVDGQWLMVTGQQQLDVRDPERVSYRMSQKVHRKMLPSNLSPTAMTCCLTPSGQLWVRGQCVALALPEAQTGPSPRLGSLGSKASNLTR
B5: Hsp20 (protein, UniProt Q9UJY1 1-196, looked up)
Heat shock protein beta-8: MADGQMPFSCHYPSRLRRDPFRDSPLSSRLLDDGFGMDPFPDDLTASWPDWALPRLSSAWPGTLRSGMVPRGPTATARFGVPAEGRTPPPFPGEPWKVCVNVHSFKPEELMVKTKDGYVEVSGKHEEKQQEGGIVSKNFTKKIQLPAEVDPVTVFASLSPEGLLIIEAPQVPPYSTFGESSFNNELPQDSQEVTCT
notes: as for B1

Test system: EAE mice
Assay: EAE in 129Sv WT mice immunized with MOG35-55/CFA, clinical scoring
Assay type: in vivo, mouse
Conditions: for AREA UNDER THE CURVE (amount higher than HSPB5 normalized to PBS): average EAE scores, peptide every other day from peak of disease, 129Sv WT mice, n=5 per group; for therapeutic efficacy of peptide in EAE (clinical scores): peptide every other day from peak of disease (10 μg, or 1 μg equimolar to 10 μg protein); for clinical paralysis / EAE clinical scores: 10 μg sHSP protein IP every other day starting at the peak of disease, vs PBS
Procedure: To investigate if the therapeutic efficacy of HSPB5 is a common feature of the whole family of small heat shock proteins, we expressed recombinant HSPB1, HSPB4, and HSPB5. We then treated EAE mice every other day starting at the peak of disease, when clinical paralysis is apparent, with an intraperitoneal (IP) administration of 10 μg of either HSPB1, HSPB4, HSPB5, or PBS as the vehicle control. […] Treating mice in vivo with HSPB1, HSPB4, or HSPB5 led to a reduction in the production of pro-inflammatory cytokines by MOG stimulated splenocytes taken from MOG immunized mice (FIG. 1c). Improvement of the clinical score was dependent on continued dosing of the sHSP. After dosing was stopped, symptoms returned, and paralysis worsened after 96 hours.
Therapeutic Peptides from HSPB5 in EAE. […] We made a series of overlapping, 15-mer peptide fragments of HSPB5 and treated mice at the peak of disease with 10 μg of each peptide every other day, using HSPB5 as a positive control and PBS as a negative control.
EAE induction and scoring. Mice were immunized subcutaneously with 100 μL of myelin oligodendrocyte glycoprotein (MOG) peptide 35-55 (2 mg/mL) and Complete Freund's adjuvant (CFA) (4 mg/mL) on Day 0. […] Mice were randomized at the peak of disease into the treatment groups where they received 10 ug/200 μL of sHSP, 1 μg/200 uL of sHSP peptide, or 200 μL of PBS (vehicle) every other day. Mice were scored every day on a clinical scoring system: 0, healthy mouse; 1, limp tail; 2, weak hindlimbs; 3, complete hindlimb paralysis; 4, weak forelimbs and paralyzed hindlimbs; 5, dead.

Molecule | AREA UNDER THE CURVE (amount higher than HSPB5 normalized to PBS) | therapeutic efficacy of peptide in EAE (clinical scores) | clinical paralysis / EAE clinical scores
QVSGPERTIPITREE (listed as Homo sapiens) [HSPB5 peptide 151-165] | 0.29 | – | –
EKDRFSVNLDVKHFS (listed as Homo sapiens) [HSPB5 peptide 71-85] | 0.06 | marked therapeutic efficacy | –
SRLFDQFFGEHLLES (listed as Homo sapiens) [HSPB5 peptide 21-35] | 0.28 | – | –
HLLESDLFPTSTSLS (listed as Homo sapiens) [HSPB5 peptide 31-45] | 0.33 | – | –
HGFISREFHRKYRIP (listed as Homo sapiens) [HSPB5 peptide 111-125] | 0.33 | – | –
HSPB7: recombinant human small heat shock protein | – | – | ameliorated EAE
RRPFFPFHSPSRLFD (listed as Homo sapiens) [HSPB5 peptide 11-25] | −0.11 | therapeutic | –
PPSFLRAPSWFDTGL (listed as Homo sapiens) [HSPB5 peptide 51-65] | 0.10 | – | –
LTITSSLSSDGVLTV (listed as Homo sapiens) [HSPB5 peptide 131-145] | 0.08 | therapeutic | –
ITREEKPAVTAAPKK (listed as Homo sapiens) [HSPB5 peptide 161-175] | 0.08 | therapeutic | –
STSLSPFYLRPPSFL (listed as Homo sapiens) [HSPB5 peptide 41-55] | 0.28 | – | –
B1 | – | – | ameliorated EAE
B2 | – | – | ameliorated EAE
B3 | – | – | ameliorated EAE
B4 | – | – | ameliorated EAE
B5 | – | – | ameliorated EAE
